In patent publication US20220378816A1, “2-BENZYLIDENE HYDRAZINOADENOSINE COMPOUNDS HAVING A2A ADENOSINE RECEPTOR AGONISTIC ACTIVITY” (ACADEMY OF MILITARY MEDICAL SCIENCES, priority 2019, published 2022):
Like-named read-outs stand apart in the source and are kept apart here.

Experiments:
[1] = molecular target: T1, (human) A2A adenosine receptors (Homo sapiens, UniProt P29274); test: Radioligand binding test ([3H]CGS21680 displacement, hA2A HEK-293 cell membranes); conditions: for Ki: read-out: Ki (inhibition constant)
T1 construct: purchased PerkinElmer Research Products (Boston, Mass.); host or cells: HEK-293
T1 sequence (P29274 whole entry): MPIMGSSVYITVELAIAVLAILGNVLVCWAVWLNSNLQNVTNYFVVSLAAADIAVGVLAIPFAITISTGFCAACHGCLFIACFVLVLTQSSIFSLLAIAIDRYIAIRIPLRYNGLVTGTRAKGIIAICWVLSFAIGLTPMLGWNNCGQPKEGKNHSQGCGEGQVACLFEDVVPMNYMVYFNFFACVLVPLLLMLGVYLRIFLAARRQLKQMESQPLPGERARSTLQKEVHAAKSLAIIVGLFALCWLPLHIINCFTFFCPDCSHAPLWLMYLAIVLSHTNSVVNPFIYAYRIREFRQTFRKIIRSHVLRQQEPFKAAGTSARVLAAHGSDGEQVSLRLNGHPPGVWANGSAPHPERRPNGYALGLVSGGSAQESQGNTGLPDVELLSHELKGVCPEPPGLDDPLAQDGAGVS
Protocol: Cell membranes stably transfected with (human) A2A adenosine receptors were prepared in HEK-293 cells. The cell membranes were obtained from PerkinElmer Research Products (Boston, Mass.).
The A2A adenosine receptors used were all expressed in the cell membranes. […] (final 25 nM) was added to the diluted cell membrane, and mixed well. 50 μL of the prepared dilution solution of cell membrane was transferred to the 384-well Opti-plate containing compound and incubated at 25° C. for 90 minutes. 100 μL of 0.5% Polyethyleneimine solution (PEI) was added to […]-96 GF/B filter plate, and soaked for 90 minutes at 4° C., then 500 μL of washing buffer/well (50 mM Tris-HCl pH 7.4, 154 mM NaCl) was transferred with Cell Harvester to wash the […]-96 GF/B filter plate twice. The mixed system in the Opti-plate was transferred to the washed […]-96 GF/B filter plate, 500 μL of washing buffer/well (50 mM Tris-HCl pH 7.4, 154 mM NaCl) was used to wash the […]-96 GF/B filter plate 9 times. Incubation was performed in 37° C. incubator for 3 minutes. 40 μL of ULTIMA GOLD scintillation solution (Perkin Elmer, Cat #77-16061) was added to each well, CPM (count per minute) value was read by a MicroBeta liquid scintillation counter (PerkinElmer).

[2] = molecular target: human adenosine receptor A2A (Homo sapiens, UniProt P29274); test: Adenosine receptor A2A cAMP test (LANCE Ultra cAMP, hADORA2A-HEK293 cells); assay type: cell-based; conditions: for hA2AAR agonist function: cAMP test; for EC50: stimulating production of cyclic AMP, hADORA2A-HEK293 cells
human adenosine receptor A2A, sequence (P29274 whole entry): as above
From the text: Experimental reagents and consumables: DMEM/F12, G418, Penicillin-Streptomycin, Versene Solution, HEPES, Hank's Buffered Saline Solution, PBS (pH 7.4, 1×, sterile), FBS, BSA Stabilizer 7.5%, Rolipram, NECA were separately purchased from Gibico, Hyclone and Sigma. LANCE® Ultra cAMP kit (Eu-cAMP tracer, Ulight-anti-cAMP reagent, cAMP detection buffer) and hADORA2A-HEK293 cells were purchased from PerkinElmer Research Products (Boston, Mass.). All other reagents were of analytical grade and obtained from commercial sources. 384-well polypropylene microplate and 384-well solid white plate were purchased from Labcyte and Corning, respectively.
The cells stably expressing human adenosine receptor A2A (hADORA2A-HEK293 cells) were cultured in DMEM/F12 medium containing 10% FBS, 1×Penicillin-Streptomycin and 400 μg/ml G418 in a 37° C. and 5% CO2 environment. Before the experiment, the cells were digested with Versene solution, and the cells were collected by centrifugation at 200 g and room temperature for 5 minutes, and finally resuspended with assay buffer (Hank's buffered saline solution, containing 5 mM HEPES, 0.1% BSA stabilizer and 10 μM Rolipram, pH 7.4). The TECAN automated liquid handling workstation was used to dilute the compound in a 384-well polypropylene microplate with DMSO to 11 concentration points in a 3-fold gradient to prepare the compound source plate, in which the 11 concentration points of the compound were 10 mM, 3.33 mM, 1.11 mM., 0.3 7mM, 0.1 2 mM, 0.041 mM, 0.013 mM, 4.57×10^−3 mM, 1.52×10^−3 mM, 5×10^−4 mM and 1.7×10^−4 mM. The Echo Acoustic Liquid Handler (Labcyte) was used to transfer the test compound from the compound source plate to an assay plate, in which the transfer volume of the compound was 10 nl/well. The hADORA2A-HEK293 cell suspension was diluted with assay buffer to 30,000 cells/ml, and the cell suspension was transferred to the assay plate at a volume of 10 μl/well (300 cells/well). The assay plate was centrifuged at 150 g for 1 minute and pre-incubated at room temperature for 30 minutes. The Eu-cAMP tracer working solution (Eu-cAMP tracer 40 μl, cAMP detection buffer 1.96 ml) (5 μl/well) was added to the assay plate, and then the Ulight-anti-cAMP working solution (13 μl of Ulight-anti-cAMP reagent and 1.95 ml of cAMP detection buffer) (5 µl/well) was added to the assay plate. The assay plate was rotated at 150 g for 30 seconds and incubated at room temperature for 30 minutes. The EnVision multimode plate reader (PerkinElmer) was used determine the level of cyclic adenosine monophosphate in the final solution (λex=320 nm, λem=665 nm & 615 nm). The EC50 (nM) value of the compound interacting with the A2A adenosine receptor to stimulate the production of cyclic adenosine monophosphate was calculated and the A2A receptor agonist titer of the compound was expressed as the EC50 (nM) value.

blood-brain barrier = test: Animal experiment of blood-brain barrier disruption (FITC-Dextran in brain of SD rats); assay type: in vivo
Protocol: Fluorescein-labeled dextran FITC-Dextran (CAS: 60842-46-8) with molecular weight of 10,000 MW was purchased from TCI (Shanghai) Development Co., Ltd.; PBS solution and experimental animal SD rats were obtained from commercial sources.
FITC-Dextran solutions with six concentration gradients ([…], 10 μg/ml) were prepared with PBS, and standard curve of FITC-Dextran concentration was made by using microplate reader (λex=490 nm, λem=520 nm). Additionally, 10 mg/ml FITC-Dextran solution was prepared, Compound 5 was added to PBS solution to prepare 1 mg/ml solution. 1 ml of 10 mg/ml FITC-Dextran solution and 1 ml of 1 mg/ml Compound 5 in PBS solution were taken and mixed to prepare administration solvent. 1 ml of 10mg/ml FITC-Dextran solution and 1 ml of PBS solution were taken and mixed to prepare blank control solution. 6 SD rats were injected with 2 ml of the administration solvent via tail vein, respectively, while another 6 SD rats were injected with 2 ml of the blank control solution via tail vein. […] The solution to be tested was subjected to fluorescence detection by using the microplate reader (λex=490 nm, λem=520 nm).
The measured fluorescence value by the microplate reader was converted into the corresponding FITC-Dextran average concentration according to the obtained standard curve of FITC-Dextran concentration.

[3] = calculated from IC50 by Cheng and Prusoff equation, [S] 25 nM, Km […] nM

Row | IC50 [1] [nM] | Ki [1, 3] [nM] | hA2AAR agonist function [2] | EC50 [2] [nM] | melting point [°C] | Ki [1] [nM] | Structure (SMILES) | opening of the blood-brain barrier (blood-brain barrier; FITC-Dextran co-injected) | FITC-Dextran concentration in brain (blood-brain barrier; tail vein injection with FITC-Dextran (10,000 MW), brain taken after 30 minutes, average) [µg/mL]
1 | 3.9 | 1.8 | shown as hA2AAR agonists | 0.64 | 220 |  | Nc1nc(N/N=C/c2ccc(OCc3ccccc3)c(OCc3ccccc3)c2)nc2c1ncn2[C@@H]1O[C@H](CO)[C@@H](O)[C@H]1O [Compound 2, (2R,3R,4S,5R)-2-{6-amino-2-{2-[(E)-3,4-bis(benzyloxy)benzylidene]hydrazino}-9H-purin-9-yl}-5-(hydroxymethyl)tetrahydrofuran-3,4-diol] |  | 
2 | 11.7 | 5.5 | shown as hA2AAR agonists | 4.1 | 144 |  | Nc1nc(N/N=C/c2ccc(OCc3ccc(F)cc3)cc2)nc2c1ncn2[C@@H]1O[C@H](CO)[C@@H](O)[C@H]1O [Compound 5, (2R,3R,4S,5R)-2-{6-amino-2-{2-{(E)-4-[(4-fluorobenzyl)oxy]benzylidene}hydrazino}-9H-purin-9-yl}-5-(hydroxymethyl)tetrahydrofuran-3,4-diol] | could open the blood-brain barrier | 0.11
3 |  |  | shown as hA2AAR agonists |  | 234 |  | Nc1nc(N/N=C/c2ccc(-c3ccccc3)cc2)nc2c1ncn2[C@@H]1O[C@H](CO)C(O)C1O (some centres unmarked) [Compound 9] |  | 
4 | 13.7 |  | shown as hA2AAR agonists | 17.9 | 164 | 6.4 | CCN(CC)c1ccc(/C=N/Nc2nc(N)c3ncn([C@@H]4O[C@H](CO)[C@@H](O)[C@H]4O)c3n2)cc1 [Compound 15, (2R,3R,4S,5R)-2-{6-amino-2-{2-[(E)-4-(diethylamino)benzylidene]hydrazino}-9H-purin-9-yl}-5-(hydroxymethyl)tetrahydrofuran-3,4-diol] |  | 
5 | 18.1 |  |  | 15.3 | 276 | 8.5 | N#Cc1ccc(/C=N/Nc2nc(N)c3ncn([C@@H]4O[C@H](CO)C(O)C4O)c3n2)cc1 (some centres unmarked) [Compound 20] |  | 
